# Where two headings read alike, the source gives them in different places.
# Columns and labels:
# [1] = Cytotoxicity, cell count of monolayer culture after 24 h exposure; format: cell-based, human; conditions: human, fl amnion cells, 24 h, read-out: Median der Zellzahl
# Description: Methodik: Die Zytotoxizität wird an der FL-Linie (menschliche Amnionzellen) geprüft. 2-3 Tage nach der Zelleinsaat werden die Zellen, nachdem sie als einschichtige Zellkultur (Monolayer) vorliegen, nach Medienwechsel für 24 h mit der Prüfsubstanz exponiert, danach abgelöst und die Zellzahl in % zur Kontrolle mit dem Zellzähler Universal 87001 (mölab, Hilden) ermittelt.
# Staphylococcus aureus = experiment: Agar diffusion test, inhibition zone; format: cell-based; conditions: 24 h
# Description: Methodik: Decylthiouroniumbromid wurde in abgestuften Konzentrationen im Agar inkorporiert. In Stanzlöcher wurde eine Natriumperboratlösung ohne und mit Aktivierung pipettiert. Die Platten wurden mit Staphylococcus aureus beimpft und 24 h bebrütet. Der entstehende Hemmhof wurde gemessen.
structure (smiles),measurement,setting,value
CCCCCCCCCCSC(=N)N [Decylthiouroniumbromid],viability at 24 h,"[1]; Prüfkonzentration 0,0001 %",96.8%
same,viability at 24 h,"[1]; Prüfkonzentration 0,005 %",33.5%
same,Hemmhofgröße,"Staphylococcus aureus; combination: 0,0009% Decylthiouroniumbromid im Agar with Perborat 0,5% im Stanzloch, Aktivator ja",19 mm
same,Hemmhofgröße,"Staphylococcus aureus; combination: 0,0019% Decylthiouroniumbromid im Agar with Perborat 0,5% im Stanzloch, Aktivator ja",24 mm
"O=BO[O-].[Na+] [Perborat, Natriumperborat]",Hemmhofgröße,"Staphylococcus aureus; Perboratkonzentration im Stanzloch 0,5%, Aktivator ja, no Decylthiouroniumbromid im Agar",13 mm
same,Hemmhofgröße,"Staphylococcus aureus; Perboratkonzentration im Stanzloch 0,5%, Aktivator nein, no Decylthiouroniumbromid im Agar",0 mm
same,Hemmhofgröße,"Staphylococcus aureus; Perboratkonzentration im Stanzloch 0,25%, Aktivator ja, no Decylthiouroniumbromid im Agar",0 mm
same,Hemmhofgröße,"Staphylococcus aureus; Perboratkonzentration im Stanzloch 0,25%, Aktivator nein, no Decylthiouroniumbromid im Agar",0 mm
same,Hemmhofgröße,"Staphylococcus aureus; Perboratkonzentration im Stanzloch 1%, Aktivator ja, no Decylthiouroniumbromid im Agar",15 mm
same,Hemmhofgröße,"Staphylococcus aureus; Perboratkonzentration im Stanzloch 1%, Aktivator nein, no Decylthiouroniumbromid im Agar",11 mm
same,Hemmhofgröße,"Staphylococcus aureus; Perboratkonzentration im Stanzloch 2%, Aktivator ja, no Decylthiouroniumbromid im Agar",19 mm
same,Hemmhofgröße,"Staphylococcus aureus; Perboratkonzentration im Stanzloch 2%, Aktivator nein, no Decylthiouroniumbromid im Agar",13 mm

# From patent EP0940081A1, “Combinations of active agents and disinfectants, preservatives and antiseptics containing same” (Bode Chemie GmbH & Co., priority 1998, dated 1999)
